In US20120094964A1, “SULFAMOYL BENZOIC ACID DERIVATIVES AS TRPM8 ANTAGONISTS” (priority 2009, published 2012):

target: T1, human TRPM8 (Homo sapiens, UniProt Q7Z2W7); experiment: In Vitro human TRPM8 Functional Assay (intracellular Ca2+, Fluo4, FDSS, menthol activation); type: cell-based; details: HEK293 cells stably expressing human TRPM8; activation with L-(-)-Menthol; 11-point dose-response
T1 construct: expressed in transfected cells
Protocol: In Vitro human TRPM8 Functional Assay
The functional activity of compounds was determined by measuring changes in intracellular calcium concentration using a Ca^2+-sensitive fluorescent dye, Fluo4 (Molecular Probes). The changes in fluorescent signal were monitored by the cell imaging technology by Hamamatsu Photonics's Functional Drug Screening System (FDSS).
HEK293 cells stably expressing human TRPM8 were grown in T175 flasks, in a 5% CO2 humidified incubator to about 80% confluence. Media composition consisted of Dulbecco's Modified Eagle Medium (high glucose), 10% fetal calf serum (FCS), 100 units/ml Penicillin, 100 microg/ml Streptomycin and 600 microg/ml Geneticine.
1. Plate-out HEK293-TRPM8 cells (40 microL medium containing 30,000 cells per well) into poly-D-lysine coated 384-well plates (BD FALCON) at 24 hours prior to assay.
1. […] 2. […] 3. Place the plate at room temperature in dark for 1 hour. 4. […] 5. Add 20 microL of compound solutions into each well and leave the plate for 5 minutes under the dark at room temperature. 6. Measure activity by FDSS as follows: • Set the assay plate on the stacker of FDSS • Start the detection of fluorescence intensity • After 30 sec, add 20 microL of 90 microM L-(−)-Menthol
IC50 values for compounds of the present invention were determined from 11-point dose-response studies. Curves were generated using the average of duplicate wells for each data point. Finally, the IC50 values are calculated with the best-fit dose curve determined by XLfit (ID Business Solutions Ltd.).

T1 sequence (Q7Z2W7 whole entry): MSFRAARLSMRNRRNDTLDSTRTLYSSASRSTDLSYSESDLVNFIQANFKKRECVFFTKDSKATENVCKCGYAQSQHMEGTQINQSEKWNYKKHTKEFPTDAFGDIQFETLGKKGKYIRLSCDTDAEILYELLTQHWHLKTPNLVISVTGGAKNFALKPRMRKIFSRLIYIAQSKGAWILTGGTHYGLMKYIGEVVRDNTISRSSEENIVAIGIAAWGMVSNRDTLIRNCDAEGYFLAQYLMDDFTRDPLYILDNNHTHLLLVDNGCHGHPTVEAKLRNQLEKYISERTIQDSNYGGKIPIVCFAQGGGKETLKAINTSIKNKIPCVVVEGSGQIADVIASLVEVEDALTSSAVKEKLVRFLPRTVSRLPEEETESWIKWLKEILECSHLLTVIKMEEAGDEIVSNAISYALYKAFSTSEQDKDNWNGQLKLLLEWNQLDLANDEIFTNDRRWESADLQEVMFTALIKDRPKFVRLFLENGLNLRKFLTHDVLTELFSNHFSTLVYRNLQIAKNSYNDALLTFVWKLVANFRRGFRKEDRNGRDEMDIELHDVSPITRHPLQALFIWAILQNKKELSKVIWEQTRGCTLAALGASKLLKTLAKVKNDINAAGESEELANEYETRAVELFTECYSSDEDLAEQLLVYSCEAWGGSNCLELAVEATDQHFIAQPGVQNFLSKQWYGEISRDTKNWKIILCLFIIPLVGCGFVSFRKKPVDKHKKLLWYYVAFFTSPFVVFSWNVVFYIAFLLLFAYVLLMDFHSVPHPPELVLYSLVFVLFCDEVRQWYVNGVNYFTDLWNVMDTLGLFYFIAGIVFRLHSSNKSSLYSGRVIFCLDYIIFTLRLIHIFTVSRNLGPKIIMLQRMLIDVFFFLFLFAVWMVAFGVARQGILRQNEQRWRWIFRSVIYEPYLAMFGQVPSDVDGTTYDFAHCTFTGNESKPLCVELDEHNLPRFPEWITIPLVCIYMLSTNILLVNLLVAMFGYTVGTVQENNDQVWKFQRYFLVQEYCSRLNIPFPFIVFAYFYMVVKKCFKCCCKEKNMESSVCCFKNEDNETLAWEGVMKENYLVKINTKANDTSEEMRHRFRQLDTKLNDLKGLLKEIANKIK

`O=C(O)c1ccc(S(=O)(=O)N(Cc2ccccc2)c2ncc(C(F)(F)F)cc2Cl)cc1` [Example 1, 4-(N-Benzyl-N-(3-chloro-5-(trifluoromethyl)pyridin-2-yl)sulfamoyl)benzoic acid] and `CN(C)C(=O)c1ccc(S(=O)(=O)N(Cc2ccccc2)c2ncc(C(F)(F)F)cc2Cl)cc1` [Example 12, 4-(Benzyl(3-chloro-5-(trifluoromethyl)pyridin-2-yl)sulfamoyl)-N,N-dimethylbenzamide] cannot be ordered by IC50: < 1 µM for the first, < 1 µM for the second.

First: O=C(O)c1ccc(S(=O)(=O)N(Cc2ccccc2)c2ncccc2C(F)(F)F)cc1 [Example 2, 4-(N-Benzyl-N-(3-(trifluoromethyl)pyridin-2-yl)sulfamoyl)benzoic acid]
Second: Cc1cccnc1N(Cc1ccccc1)S(=O)(=O)c1ccc(C(=O)O)cc1 [Example 34, 4-(N-Benzyl-N-(3-methylpyridin-2-yl)sulfamoyl)benzoic acid]
The IC50 of the first is higher: 10 to 30 µM for the first, 1 to 10 µM for the second.

First: O=S(=O)(Nc1cccc(C(F)(F)F)c1)c1ccccc1 [Example 4, N-(3-(Trifluoromethyl)phenyl)benzenesulfonamide]
Second: O=C(CN(c1cccc(C(F)(F)F)c1)S(=O)(=O)c1ccccc1)Nc1ccccc1 [Example 8, N-Phenyl-2-(N-(3-(trifluoromethyl)phenyl)benzenesulfonamido)acetamide]
The IC50 of the first is higher: 10 to 30 µM for the first, 1 to 10 µM for the second.

Compared with `CN1CCN(C(=O)CN(c2cccc(C(F)(F)F)c2)S(=O)(=O)c2ccccc2)CC1` [Example 5, N-(2-(4-Methylpiperazin-1-yl)-2-oxoethyl)-N-(3-(trifluoromethyl)phenyl)benzenesulfonamide], `O=C(CN(c1cccc(C(F)(F)F)c1)S(=O)(=O)c1ccccc1)N1CCCCC1` [Example 6, N-(2-oxo-2-(piperidin-1-yl)ethyl)-N-(3-(trifluoromethyl)phenyl)benzenesulfonamide] is higher in IC50: < 1 µM for the first, 10 to 30 µM for the second. The first is the more potent here.

Compared with `O=C(CN(c1cccc(C(F)(F)F)c1)S(=O)(=O)c1ccccc1)NCc1ccccc1` [Example 7, N-Benzyl-2-(N-(3-(trifluoromethyl)phenyl)benzenesulfonamido)acetamide], `O=C(O)c1ccc(S(=O)(=O)N(Cc2ccccc2)c2cc(C(F)(F)F)ccn2)cc1` [Example 21, 4-(N-Benzyl-N-(4-(trifluoromethyl)pyridin-2-yl)sulfamoyl)benzoic acid] is lower in IC50: 10 to 30 µM for the first, 1 to 10 µM for the second. The second is the more potent here.

`O=S(=O)(c1ccc(CO)cc1)N(Cc1ccccc1)c1ncc(C(F)(F)F)cc1Cl` [Example 9, N-Benzyl-N-(3-chloro-5-(trifluoromethyl)pyridin-2-yl)-4-(hydroxymethyl)benzene-1-sulfonamide] and `Cc1ccc(CN(c2ncc(C(F)(F)F)cc2Cl)S(=O)(=O)c2ccc(C(=O)O)cc2)cc1` [Example 27, 4-(N-(3-Chloro-5-(trifluoromethyl)pyridin-2-yl)-N-(4-methylbenzyl)sulfamoyl)benzoic acid] cannot be ordered by IC50: < 1 µM for the first, < 1 µM for the second.

`O=C(O)c1ccc(S(=O)(=O)N(Cc2ccc(OC(F)(F)F)cc2)c2ncc(C(F)(F)F)cc2Cl)cc1` [Example 15, 4-(N-(3-Chloro-5-(trifluoromethyl)pyridin-2-yl)-N-(4-(trifluoromethoxy)benzyl)sulfamoyl)benzoic acid] and `O=C(O)c1ccc(S(=O)(=O)N(Cc2ccc(OCC(F)(F)F)cc2)c2ncc(C(F)(F)F)cc2Cl)cc1` [Example 41] cannot be ordered by IC50: < 1 µM for the first, < 1 µM for the second.

`COc1ccc(CN(c2ncc(C(F)(F)F)cc2Cl)S(=O)(=O)c2ccc(C(=O)O)cc2)cc1` [Example 16, 4-(N-(3-Chloro-5-(trifluoromethyl)pyridin-2-yl)-N-(4-methoxybenzyl)sulfamoyl)benzoic acid] and `O=C(O)c1ccc(S(=O)(=O)N(Cc2ccc(Cl)cc2)c2ncc(C(F)(F)F)cc2Cl)cc1` [Example 32, 4-(N-(3-Chloro-5-(trifluoromethyl)pyridin-2-yl)-N-(4-chlorobenzyl)sulfamoyl)benzoic acid] cannot be ordered by IC50: < 1 µM for the first, < 1 µM for the second.

First: O=C(O)c1ccc(S(=O)(=O)N(CCC2CCCCC2)c2ncc(C(F)(F)F)cc2Cl)cc1 [Example 19, 4-(N-(3-Chloro-5-(trifluoromethyl)pyridin-2-yl)-N-(2-cyclohexylethyl)sulfamoyl)benzoic acid]
Second: O=C(O)c1ccc(S(=O)(=O)N(CC2CC2)c2ncc(C(F)(F)F)cc2Cl)cc1 [Example 29, 4-(N-(3-Chloro-5-(trifluoromethyl)pyridin-2-yl)-N-(cyclopropylmethyl)sulfamoyl)benzoic acid]
The IC50 of the first is lower: < 1 µM for the first, 1 to 10 µM for the second.

`O=C(O)c1ccc(S(=O)(=O)N(Cc2ccccc2F)c2ncc(C(F)(F)F)cc2Cl)cc1` [Example 20, 4-(N-(3-Chloro-5-(trifluoromethyl)pyridin-2-yl)-N-(2-fluorobenzyl)sulfamoyl)benzoic acid] and `O=C(O)c1ccc(S(=O)(=O)N(Cc2ccc(F)cc2F)c2ncc(C(F)(F)F)cc2Cl)cc1` [Example 26, 4-(N-(3-Chloro-5-(trifluoromethyl)pyridin-2-yl)-N-(2,4-difluorobenzyl)sulfamoyl)benzoic acid] cannot be ordered by IC50: < 1 µM for the first, < 1 µM for the second.

`O=C(O)c1ccc(S(=O)(=O)N(Cc2ccccc2)c2cccc(C(F)(F)F)n2)cc1` [Example 22, 4-(N-Benzyl-N-(6-(trifluoromethyl)pyridin-2-yl)sulfamoyl)benzoic acid] and `O=C(O)c1ccc(S(=O)(=O)N(Cc2ccccc2)c2ncccc2Cl)cc1` [Example 37, 4-(N-Benzyl-N-(3-chloropyridin-2-yl)sulfamoyl)benzoic acid] fall in the same range of IC50: 1 to 10 µM for the first, 1 to 10 µM for the second.

`O=C(O)c1ccc(S(=O)(=O)N(Cc2cccc(C(F)(F)F)c2)c2ncc(C(F)(F)F)cc2Cl)cc1` [Example 23, 4-(N-(3-Chloro-5-(trifluoromethyl)pyridin-2-yl)-N-(3-(trifluoromethyl)benzyl)sulfamoyl)benzoic acid] and `O=C(O)c1ccc(S(=O)(=O)N(Cc2cccc(Cl)c2)c2ncc(C(F)(F)F)cc2Cl)cc1` [Example 48, 4-(N-(3-Chloro-5-(trifluoromethyl)pyridin-2-yl)-N-(3-chlorobenzyl)sulfamoyl)benzoic acid] cannot be ordered by IC50: < 1 µM for the first, < 1 µM for the second.

`COc1cccc(CN(c2ncc(C(F)(F)F)cc2Cl)S(=O)(=O)c2ccc(C(=O)O)cc2)c1` [Example 24, 4-(N-(3-Chloro-5-(trifluoromethyl)pyridin-2-yl)-N-(3-methoxybenzyl)sulfamoyl)benzoic acid] and `O=C(O)c1ccc(S(=O)(=O)N(Cc2ccc(F)c(F)c2)c2ncc(C(F)(F)F)cc2Cl)cc1` [Example 45, 4-(N-(3-Chloro-5-(trifluoromethyl)pyridin-2-yl)-N-(3,4-difluorobenzyl)sulfamoyl)benzoic acid] cannot be ordered by IC50: < 1 µM for the first, < 1 µM for the second.

`CC(C)c1ccc(CN(c2ncc(C(F)(F)F)cc2Cl)S(=O)(=O)c2ccc(C(=O)O)cc2)cc1` [Example 28, 4-(N-(3-Chloro-5-(trifluoromethyl)pyridin-2-yl)-N-(4-isopropylbenzyl)sulfamoyl)benzoic acid] and `N#Cc1ccc(CN(c2ncc(C(F)(F)F)cc2Cl)S(=O)(=O)c2ccc(C(=O)O)cc2)cc1` [Example 33, 4-(N-(3-Chloro-5-(trifluoromethyl)pyridin-2-yl)-N-(4-cyanobenzyl)sulfamoyl)benzoic acid] cannot be ordered by IC50: < 1 µM for the first, < 1 µM for the second.

`O=C(O)c1ccc(S(=O)(=O)N(CCOc2ccc(F)cc2)c2ncc(C(F)(F)F)cc2Cl)cc1` [Example 30, 4-(N-(3-Chloro-5-(trifluoromethyl)pyridin-2-yl)-N-(2-(4-fluorophenoxy)ethyl)sulfamoyl)benzoic acid] and `O=C(O)c1ccc(S(=O)(=O)N(Cc2ccc(F)cc2Cl)c2ncc(C(F)(F)F)cc2Cl)cc1` [Example 40, 4-(N-(2-Chloro-4-fluorobenzyl)-N-(3-chloro-5-(trifluoromethyl)pyridin-2-yl)sulfamoyl)benzoic acid] cannot be ordered by IC50: < 1 µM for the first, < 1 µM for the second.

`Cc1cc(Cl)cnc1N(Cc1ccccc1)S(=O)(=O)c1ccc(C(=O)O)cc1` [Example 38, 4-(N-Benzyl-N-(5-chloro-3-methylpyridin-2-yl)sulfamoyl)benzoic acid] and `O=C(O)c1ccc(S(=O)(=O)N(Cc2ccc(Cl)c(Cl)c2)c2ncc(C(F)(F)F)cc2Cl)cc1` [Example 47, 4-(N-(3-Chloro-5-(trifluoromethyl)pyridin-2-yl)-N-(3,4-dichlorobenzyl)sulfamoyl)benzoic acid] cannot be ordered by IC50: < 1 µM for the first, < 1 µM for the second.

`O=C(O)c1ccc(S(=O)(=O)N(Cc2cc(F)cc(F)c2)c2ncc(C(F)(F)F)cc2Cl)cc1` [Example 42, 4-(N-(3-Chloro-5-(trifluoromethyl)pyridin-2-yl)-N-(3,5-difluorobenzyl)sulfamoyl)benzoic acid] and `O=C(O)c1ccc(S(=O)(=O)N(Cc2cc(F)ccc2F)c2ncc(C(F)(F)F)cc2Cl)cc1` [Example 46, 4-(N-(3-Chloro-5-(trifluoromethyl)pyridin-2-yl)-N-(2,5-difluorobenzyl)sulfamoyl)benzoic acid] cannot be ordered by IC50: < 1 µM for the first, < 1 µM for the second.

In the case of `O=C(O)c1ccc(S(=O)(=O)N(Cc2c(F)cccc2F)c2ncc(C(F)(F)F)cc2Cl)cc1` [Example 44, 4-(N-(3-Chloro-5-(trifluoromethyl)pyridin-2-yl)-N-(2,6-difluorobenzyl)sulfamoyl)benzoic acid], the IC50 is reported as < 1 µM.
